# Results from paper PMC8279981, “A first-in-human, phase 1 study of the NEDD8 activating enzyme E1 inhibitor TAS4464 in patients with advanced solid tumors” (Investigational New Drugs, 2021).
# System: patients with advanced or metastatic solid tumors
# Assay: Phase 1 study: treatment-related adverse events (NCI CTCAE v4.03)
# Type: in vivo, human
# Conditions: for Anemia (treatment-related adverse event) / Blood bilirubin increased (treatment-related adverse event) / Decreased appetite (treatment-related adverse event) / Diarrhea (treatment-related adverse event) / Fatigue (treatment-related adverse event) / GGT increased (treatment-related adverse event) / Hypoalbuminemia (treatment-related adverse event) / Malaise (treatment-related adverse event) / Nausea (treatment-related adverse event) / Neuropathy peripheral (treatment-related adverse event) / Pyrexia (treatment-related adverse event) / Rash (treatment-related adverse event) / Vomiting (treatment-related adverse event) / WBC decreased (treatment-related adverse event) / ALP increased (treatment-related adverse event) / ALT increased (treatment-related adverse event) / AST increased (treatment-related adverse event): Grade ≥ 3
# Experimental: The highest non-severely toxic dose was derived from a dog toxicology study and was used to calculate a clinical starting dose of 10 mg/m^2, which corresponds to one-sixth of the human-equivalent dose. The maximum tolerated dose (MTD) of TAS4464 was investigated using an accelerated titration design. Initially, the starting TAS4464 dose was 10 mg/m^2 and was followed by an initial accelerated stage (i.e., weekly dosing phase) with 100% dose-step increments (level 1: 10 mg/m^2, level 2: 20 mg/m^2, level 3: 40 mg/m^2, and level 4: 56 mg/m^2). The 100% dose-step increments continued until the occurrence of a grade ≥ 2 drug-related toxicity within Cycle 1; dose-limiting toxicity (DLT) within Cycle 1; the next dose level reaching 60 mg/m^2; or any safety concerns. Thereafter, 40% increments were employed in the standard stage.
# In the standard stage, three to six patients were to be enrolled, and the dose was escalated in 40% increments if none of the first three patients experienced a DLT. If one patient experienced a DLT, three additional patients were to be enrolled at the same dose level. If two of three or two of six patients experienced a DLT, the dose escalation was to be ceased. […] Additionally, DLT criteria regarding abnormal liver function and discontinuation criteria for study drug administration were added. The TAS4464 dose level for Day 1 of Cycle 1 was then set to 40 mg/m^2 (level 3).
# Therefore, TAS4464 was administered every 7 days by 1-h intravenous infusion (± 10 min) at the dose assigned to each level. Study treatment was repeated every 28 days. The dosing regimens of each cohort are summarized in Supplementary Fig. 1.
# Secondary objectives included assessment of AEs, treatment-related AEs, objective response rate (ORR), disease control rate (DCR), progression-free survival (PFS), and PK, pharmacodynamic, and pharmacogenomic (PGx) parameters with TAS4464 administration. The National Cancer Institute Common Terminology Criteria for Adverse Events (NCI CTCAE) v4.03 [17] was used to assess the severity of AEs. […] RECIST v1.1 [16] was used to determine clinical response, and all computed tomography images were assessed by the physician at the study site after completion of the imaging procedure. The ORR was defined as the percentage of patients with the best overall response of complete response (CR) or partial response (PR). The DCR was the percentage of patients with a best overall response of CR, PR, stable disease (SD), or non-CR/non-progressive disease (PD). PFS was defined as the time from the date of enrollment until the date of investigator-assessed radiological disease progression or death due to any cause, whichever occurred first.
# [1] = weekly dosing Level 1 (10 mg/m^2), n = 1
# [2] = weekly dosing Level 2 (20 mg/m^2), n = 1
# [3] = weekly dosing Level 3 (40 mg/m^2), n = 3
# [4] = weekly dosing Level 4 (56 mg/m^2), n = 5
# [5] = weekly dosing with lead-in Level 3 (20 → 40 mg/m^2), n = 3
# [6] = weekly dosing with lead-in Level 4 (20 → 56 mg/m^2), n = 3
smiles,measurement,setting,value
CCOc1cccc(F)c1C#Cc1cn([C@@H]2O[C@H](CNS(N)(=O)=O)[C@@H](O)[C@H]2O)c2ncnc(N)c12 [TAS4464],Anemia (treatment-related adverse event),"Total, N = 16",0 n (%)
same,Blood bilirubin increased (treatment-related adverse event),"Total, N = 16",0 n (%)
same,Decreased appetite (treatment-related adverse event),"Total, N = 16",0 n (%)
same,Diarrhea (treatment-related adverse event),"Total, N = 16",0 n (%)
same,Fatigue (treatment-related adverse event),"Total, N = 16",0 n (%)
same,GGT increased (treatment-related adverse event),"Total, N = 16",3 (18.8) n (%)
same,Hypoalbuminemia (treatment-related adverse event),"Total, N = 16",0 n (%)
same,Malaise (treatment-related adverse event),"Total, N = 16",0 n (%)
same,Nausea (treatment-related adverse event),"Total, N = 16",0 n (%)
same,Neuropathy peripheral (treatment-related adverse event),"Total, N = 16",0 n (%)
same,Pyrexia (treatment-related adverse event),"Total, N = 16",0 n (%)
same,Rash (treatment-related adverse event),"Total, N = 16",0 n (%)
same,Vomiting (treatment-related adverse event),"Total, N = 16",0 n (%)
same,WBC decreased (treatment-related adverse event),"Total, N = 16",1 (6.3) n (%)
same,ALP increased (treatment-related adverse event),[1],0 n (%)
same,ALT increased (treatment-related adverse event),[1],0 n (%)
same,AST increased (treatment-related adverse event),[1],0 n (%)
same,Anemia (treatment-related adverse event),[1],0 n (%)
same,Blood bilirubin increased (treatment-related adverse event),[1],0 n (%)
same,Decreased appetite (treatment-related adverse event),[1],0 n (%)
same,Diarrhea (treatment-related adverse event),[1],0 n (%)
same,Fatigue (treatment-related adverse event),[1],0 n (%)
same,GGT increased (treatment-related adverse event),[1],0 n (%)
same,Hypoalbuminemia (treatment-related adverse event),[1],0 n (%)
same,Malaise (treatment-related adverse event),[1],0 n (%)
same,Nausea (treatment-related adverse event),[1],0 n (%)
same,Neuropathy peripheral (treatment-related adverse event),[1],0 n (%)
same,Pyrexia (treatment-related adverse event),[1],0 n (%)
same,Rash (treatment-related adverse event),[1],0 n (%)
same,Vomiting (treatment-related adverse event),[1],0 n (%)
same,WBC decreased (treatment-related adverse event),[1],0 n (%)
same,ALP increased (treatment-related adverse event),[2],0 n (%)
same,ALT increased (treatment-related adverse event),[2],0 n (%)
same,AST increased (treatment-related adverse event),[2],0 n (%)
same,Anemia (treatment-related adverse event),[2],0 n (%)
same,Blood bilirubin increased (treatment-related adverse event),[2],0 n (%)
same,Decreased appetite (treatment-related adverse event),[2],0 n (%)
same,Diarrhea (treatment-related adverse event),[2],0 n (%)
same,Fatigue (treatment-related adverse event),[2],0 n (%)
same,GGT increased (treatment-related adverse event),[2],0 n (%)
same,Hypoalbuminemia (treatment-related adverse event),[2],0 n (%)
same,Malaise (treatment-related adverse event),[2],0 n (%)
same,Nausea (treatment-related adverse event),[2],0 n (%)
same,Neuropathy peripheral (treatment-related adverse event),[2],0 n (%)
same,Pyrexia (treatment-related adverse event),[2],0 n (%)
same,Rash (treatment-related adverse event),[2],0 n (%)
same,Vomiting (treatment-related adverse event),[2],0 n (%)
same,WBC decreased (treatment-related adverse event),[2],0 n (%)
same,ALP increased (treatment-related adverse event),[3],0 n (%)
same,ALT increased (treatment-related adverse event),[3],1 (33.3) n (%)
same,AST increased (treatment-related adverse event),[3],1 (33.3) n (%)
same,Anemia (treatment-related adverse event),[3],0 n (%)
same,Blood bilirubin increased (treatment-related adverse event),[3],0 n (%)
same,Decreased appetite (treatment-related adverse event),[3],0 n (%)
same,Diarrhea (treatment-related adverse event),[3],0 n (%)
same,Fatigue (treatment-related adverse event),[3],0 n (%)
same,GGT increased (treatment-related adverse event),[3],0 n (%)
same,Hypoalbuminemia (treatment-related adverse event),[3],0 n (%)
same,Malaise (treatment-related adverse event),[3],0 n (%)
same,Nausea (treatment-related adverse event),[3],0 n (%)
same,Neuropathy peripheral (treatment-related adverse event),[3],0 n (%)
same,Pyrexia (treatment-related adverse event),[3],0 n (%)
same,Rash (treatment-related adverse event),[3],0 n (%)
same,Vomiting (treatment-related adverse event),[3],0 n (%)
same,WBC decreased (treatment-related adverse event),[3],0 n (%)
same,ALP increased (treatment-related adverse event),[4],1 (20.0) n (%)
same,ALT increased (treatment-related adverse event),[4],3 (60.0) n (%)
same,AST increased (treatment-related adverse event),[4],3 (60.0) n (%)
same,Anemia (treatment-related adverse event),[4],0 n (%)
same,Blood bilirubin increased (treatment-related adverse event),[4],0 n (%)
same,Decreased appetite (treatment-related adverse event),[4],0 n (%)
same,Diarrhea (treatment-related adverse event),[4],0 n (%)
same,Fatigue (treatment-related adverse event),[4],0 n (%)
same,GGT increased (treatment-related adverse event),[4],3 (60.0) n (%)
same,Hypoalbuminemia (treatment-related adverse event),[4],0 n (%)
same,Malaise (treatment-related adverse event),[4],0 n (%)
same,Nausea (treatment-related adverse event),[4],0 n (%)
same,Neuropathy peripheral (treatment-related adverse event),[4],0 n (%)
same,Pyrexia (treatment-related adverse event),[4],0 n (%)
same,Rash (treatment-related adverse event),[4],0 n (%)
same,Vomiting (treatment-related adverse event),[4],0 n (%)
same,WBC decreased (treatment-related adverse event),[4],1 (20.0) n (%)
same,ALP increased (treatment-related adverse event),[5],0 n (%)
same,ALT increased (treatment-related adverse event),[5],0 n (%)
same,AST increased (treatment-related adverse event),[5],0 n (%)
same,Anemia (treatment-related adverse event),[5],0 n (%)
same,Blood bilirubin increased (treatment-related adverse event),[5],0 n (%)
same,Decreased appetite (treatment-related adverse event),[5],0 n (%)
same,Diarrhea (treatment-related adverse event),[5],0 n (%)
same,Fatigue (treatment-related adverse event),[5],0 n (%)
same,GGT increased (treatment-related adverse event),[5],0 n (%)
same,Hypoalbuminemia (treatment-related adverse event),[5],0 n (%)
same,Malaise (treatment-related adverse event),[5],0 n (%)
same,Nausea (treatment-related adverse event),[5],0 n (%)
same,Neuropathy peripheral (treatment-related adverse event),[5],0 n (%)
same,Pyrexia (treatment-related adverse event),[5],0 n (%)
same,Rash (treatment-related adverse event),[5],0 n (%)
same,Vomiting (treatment-related adverse event),[5],0 n (%)
same,WBC decreased (treatment-related adverse event),[5],0 n (%)
same,ALP increased (treatment-related adverse event),[6],0 n (%)
same,ALT increased (treatment-related adverse event),[6],1 (33.3) n (%)
same,AST increased (treatment-related adverse event),[6],1 (33.3) n (%)
same,Anemia (treatment-related adverse event),[6],0 n (%)
same,Blood bilirubin increased (treatment-related adverse event),[6],0 n (%)
same,Decreased appetite (treatment-related adverse event),[6],0 n (%)
same,Diarrhea (treatment-related adverse event),[6],0 n (%)
same,Fatigue (treatment-related adverse event),[6],0 n (%)
same,GGT increased (treatment-related adverse event),[6],0 n (%)
same,Hypoalbuminemia (treatment-related adverse event),[6],0 n (%)
same,Malaise (treatment-related adverse event),[6],0 n (%)
same,Nausea (treatment-related adverse event),[6],0 n (%)
same,Neuropathy peripheral (treatment-related adverse event),[6],0 n (%)
same,Pyrexia (treatment-related adverse event),[6],0 n (%)
same,Rash (treatment-related adverse event),[6],0 n (%)
same,Vomiting (treatment-related adverse event),[6],0 n (%)
same,WBC decreased (treatment-related adverse event),[6],0 n (%)
same,"ALT increased, Grade ≥ 3 treatment-related AE",all treated patients,31.3%
same,"ALT increased, all-grade treatment-related AE",all treated patients,68.8%
same,"AST increased, Grade ≥ 3 treatment-related AE",all treated patients,31.3%
same,"AST increased, all-grade treatment-related AE",all treated patients,62.5%
same,"alkaline phosphatase (ALP) increased, all-grade treatment-related AE",all treated patients,43.8%
same,"decreased appetite, all-grade treatment-related AE",all treated patients,31.3%
same,"nausea, all-grade treatment-related AE",all treated patients,43.8%
same,drug-induced liver injury by Hy's law criteria,doses of up to 56 mg/m^2,No patients presented with drug-induced liver injury
same,treatment-related serious AE,"weekly dosing level 4, resolved following TAS4464 dose reduction",ALT increased occurring in one patient
same,serious AEs,whole study,Four serious AEs were reported in three patients
same,deaths or fatal AEs,within the study period,No deaths or fatal AEs occurred
